Results reported in ChEMBL document CHEMBL1201862, “PubChem BioAssay data set” (2004).
Calls of active or inactive are those of the source.

Experiments:
[1] = molecular target: T1, Apoptotic protease-activating factor 1 (Homo sapiens, UniProt O14727); test: SAR analysis of small molecule Activators of Apaf-1 in a Fluorescent assay.; assay type: functional; conditions: read-out: EC50_Mean
T1 sequence (O14727 whole entry): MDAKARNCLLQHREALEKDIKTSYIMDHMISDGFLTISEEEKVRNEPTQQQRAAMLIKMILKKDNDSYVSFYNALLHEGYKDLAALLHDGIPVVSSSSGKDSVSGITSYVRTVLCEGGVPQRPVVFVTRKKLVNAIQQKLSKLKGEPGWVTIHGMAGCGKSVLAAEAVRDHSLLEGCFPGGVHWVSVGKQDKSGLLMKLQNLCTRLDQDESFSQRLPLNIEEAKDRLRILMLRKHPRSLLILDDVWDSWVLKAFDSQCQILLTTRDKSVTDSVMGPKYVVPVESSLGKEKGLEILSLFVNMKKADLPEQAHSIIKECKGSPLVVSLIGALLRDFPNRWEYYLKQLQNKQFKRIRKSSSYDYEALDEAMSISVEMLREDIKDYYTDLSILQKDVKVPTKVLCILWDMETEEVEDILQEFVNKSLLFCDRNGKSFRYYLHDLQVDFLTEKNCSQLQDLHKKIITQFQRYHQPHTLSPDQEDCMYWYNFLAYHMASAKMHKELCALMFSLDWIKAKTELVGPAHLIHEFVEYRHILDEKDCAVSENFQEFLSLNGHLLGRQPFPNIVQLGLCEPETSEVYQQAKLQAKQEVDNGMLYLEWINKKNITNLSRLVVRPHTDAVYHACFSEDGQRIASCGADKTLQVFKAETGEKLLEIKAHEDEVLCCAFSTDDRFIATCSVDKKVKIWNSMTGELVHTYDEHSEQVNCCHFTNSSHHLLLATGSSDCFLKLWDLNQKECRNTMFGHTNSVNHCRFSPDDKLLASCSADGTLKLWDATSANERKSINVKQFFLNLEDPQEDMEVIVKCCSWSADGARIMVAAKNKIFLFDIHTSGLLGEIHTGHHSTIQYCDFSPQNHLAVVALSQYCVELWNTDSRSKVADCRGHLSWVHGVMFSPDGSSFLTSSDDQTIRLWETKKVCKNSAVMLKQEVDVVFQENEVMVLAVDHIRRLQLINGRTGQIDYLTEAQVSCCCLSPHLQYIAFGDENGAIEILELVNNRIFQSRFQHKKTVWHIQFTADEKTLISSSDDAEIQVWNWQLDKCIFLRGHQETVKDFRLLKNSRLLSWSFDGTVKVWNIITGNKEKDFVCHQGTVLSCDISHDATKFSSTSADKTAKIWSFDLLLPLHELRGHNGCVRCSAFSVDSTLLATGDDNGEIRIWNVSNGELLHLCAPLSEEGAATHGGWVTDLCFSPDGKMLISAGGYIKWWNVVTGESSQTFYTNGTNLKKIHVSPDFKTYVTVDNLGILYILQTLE

[2] = molecular target: Beta-galactosidase (Escherichia coli, UniProt Q8VNN2); test: Dose response counterscreen for EBI2 assay utilizing the enzyme, b-galactosidase.; assay type: functional
Sequence of Beta-galactosidase (Q8VNN2 whole entry): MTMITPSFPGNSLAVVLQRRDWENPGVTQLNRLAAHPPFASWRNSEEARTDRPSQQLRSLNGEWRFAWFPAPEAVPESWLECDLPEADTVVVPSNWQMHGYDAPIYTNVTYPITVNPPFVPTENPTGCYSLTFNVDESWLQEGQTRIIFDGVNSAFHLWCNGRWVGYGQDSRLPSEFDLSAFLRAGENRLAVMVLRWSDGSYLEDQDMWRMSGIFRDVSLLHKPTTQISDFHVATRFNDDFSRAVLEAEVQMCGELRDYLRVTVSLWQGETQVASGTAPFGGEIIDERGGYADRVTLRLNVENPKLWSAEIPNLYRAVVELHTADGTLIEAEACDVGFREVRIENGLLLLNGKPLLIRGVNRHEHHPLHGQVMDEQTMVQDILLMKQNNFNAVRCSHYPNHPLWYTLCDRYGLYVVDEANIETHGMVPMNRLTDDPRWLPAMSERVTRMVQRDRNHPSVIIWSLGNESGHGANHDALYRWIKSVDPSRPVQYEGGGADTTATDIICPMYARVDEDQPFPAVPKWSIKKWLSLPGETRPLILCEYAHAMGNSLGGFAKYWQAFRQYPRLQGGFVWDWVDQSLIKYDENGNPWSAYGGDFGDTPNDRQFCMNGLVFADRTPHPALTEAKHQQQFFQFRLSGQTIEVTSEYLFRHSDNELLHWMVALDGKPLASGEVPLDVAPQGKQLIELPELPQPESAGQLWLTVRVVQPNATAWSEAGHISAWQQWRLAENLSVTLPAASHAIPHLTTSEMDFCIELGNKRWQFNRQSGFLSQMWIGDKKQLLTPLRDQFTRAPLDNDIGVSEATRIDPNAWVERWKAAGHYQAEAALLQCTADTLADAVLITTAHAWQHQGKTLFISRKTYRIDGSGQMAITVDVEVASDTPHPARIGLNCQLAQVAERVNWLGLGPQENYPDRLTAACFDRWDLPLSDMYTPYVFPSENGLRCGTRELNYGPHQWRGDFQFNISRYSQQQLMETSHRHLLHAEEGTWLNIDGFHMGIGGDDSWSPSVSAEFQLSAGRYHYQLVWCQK

[3] = system: BJ; test: BJ-TERT fibroblast viability loss – cell-based, RAS-independent, luminescence, dose response (AID 1933); assay type: functional; conditions: Homo sapiens
[4] = system: BJ; test: BJ-TERT-LT-ST fibroblast viability loss – cell-based, RAS-independent, luminescence, dose response (AID 1935); assay type: functional; conditions: Homo sapiens;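 further: BJ fibroblasts immortalized with TERT plus LT and ST oncogenes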
[5] = DRD fibroblast viability loss – cell-based, non-viral oncogenic, luminescence, dose response (AID 1934); assay type: functional; conditions: Homo sapiens
[6] = system: BJ; test: growth inhibition of engineered Ras-driven BJ cells – cell-based, alamar blue fluorescence, cherrypicked samples, dose response (AID 2631); assay type: functional; conditions: Homo sapiens;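 further: confirmatory dose-response assay in RAS-dependent BJ fibroblasts engineered with TERT, LT and ST, with cytotoxicity read by fluorescence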
[7] = system: BJ; test: cells; assay type: functional, cell-based; conditions: Homo sapiens
[8] = molecular target: T2, Rac GTPase-activating protein 1 (Homo sapiens, UniProt Q9H0H5); test: blockers of MgcRacGAP-driven Rac1 GTP hydrolysis – biochemical, ADP Hunter fluorescence, primary and confirmatory, confirmation (AID 624330); assay type: functional
T2 sequence (Q9H0H5 whole entry): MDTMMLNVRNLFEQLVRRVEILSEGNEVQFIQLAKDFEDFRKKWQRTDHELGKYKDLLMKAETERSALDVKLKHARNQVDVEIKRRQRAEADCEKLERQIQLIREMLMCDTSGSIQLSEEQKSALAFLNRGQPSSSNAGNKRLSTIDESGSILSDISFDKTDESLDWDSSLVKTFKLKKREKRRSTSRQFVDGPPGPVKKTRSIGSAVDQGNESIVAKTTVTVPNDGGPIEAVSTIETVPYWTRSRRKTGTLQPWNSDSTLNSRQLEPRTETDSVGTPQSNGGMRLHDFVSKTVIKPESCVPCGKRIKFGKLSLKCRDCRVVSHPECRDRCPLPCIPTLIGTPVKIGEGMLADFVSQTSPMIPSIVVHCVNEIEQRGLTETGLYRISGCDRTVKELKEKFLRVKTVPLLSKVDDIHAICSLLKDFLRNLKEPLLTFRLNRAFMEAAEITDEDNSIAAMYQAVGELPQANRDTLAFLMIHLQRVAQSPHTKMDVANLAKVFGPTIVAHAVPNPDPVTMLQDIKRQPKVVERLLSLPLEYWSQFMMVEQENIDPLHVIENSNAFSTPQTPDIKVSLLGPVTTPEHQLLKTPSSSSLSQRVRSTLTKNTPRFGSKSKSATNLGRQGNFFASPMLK

[9] = molecular target: Melanocortin receptor 4 (Homo sapiens, UniProt P32245); assay type: functional, cell-based;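 further: Cell-based assay with luminescence read-out, confirmatory dose-response testing for agonist activity of biased ligands at MC4R; human U2OS cells with tagged receptor and beta-arrestin; potency of agonists that increase receptor coupling to beta-arrestin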
Sequence of Melanocortin receptor 4 (P32245 whole entry): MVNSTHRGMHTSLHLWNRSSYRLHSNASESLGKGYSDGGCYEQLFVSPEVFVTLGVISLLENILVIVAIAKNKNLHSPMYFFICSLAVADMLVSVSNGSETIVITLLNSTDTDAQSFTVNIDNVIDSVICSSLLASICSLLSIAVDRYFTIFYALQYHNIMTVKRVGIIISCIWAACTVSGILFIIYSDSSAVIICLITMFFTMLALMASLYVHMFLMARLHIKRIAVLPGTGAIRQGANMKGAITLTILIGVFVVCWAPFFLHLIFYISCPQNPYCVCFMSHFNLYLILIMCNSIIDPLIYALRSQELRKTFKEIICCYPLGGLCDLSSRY

[10] = molecular target: Heat shock protein HSP 90-alpha (Homo sapiens, UniProt P07900); assay type: functional, organism-based
[11] = molecular target: T3, Serine/threonine-protein phosphatase (Candida dubliniensis (strain CD36 / CBS 7987 / NCPF 3949 / NRRLY-17841) (Yeast), UniProt B9W6M3); test: blockers of CaCl2-induced CDRE-lacZ signaling – S. cerevisiae, luminescence, secondary, dose response (AID 2388); assay type: functional, cell-based;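 further: yeast reporter cells carrying a calcineurin-responsive lacZ construct stimulated with calcium chloride; luminescent beta-galactosidase reporter signal in whole cells rather than isolated phosphatase activity; potency for inhibition where a drop in reporter signal means calcineurin blockade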
T3 sequence (B9W6M3 whole entry): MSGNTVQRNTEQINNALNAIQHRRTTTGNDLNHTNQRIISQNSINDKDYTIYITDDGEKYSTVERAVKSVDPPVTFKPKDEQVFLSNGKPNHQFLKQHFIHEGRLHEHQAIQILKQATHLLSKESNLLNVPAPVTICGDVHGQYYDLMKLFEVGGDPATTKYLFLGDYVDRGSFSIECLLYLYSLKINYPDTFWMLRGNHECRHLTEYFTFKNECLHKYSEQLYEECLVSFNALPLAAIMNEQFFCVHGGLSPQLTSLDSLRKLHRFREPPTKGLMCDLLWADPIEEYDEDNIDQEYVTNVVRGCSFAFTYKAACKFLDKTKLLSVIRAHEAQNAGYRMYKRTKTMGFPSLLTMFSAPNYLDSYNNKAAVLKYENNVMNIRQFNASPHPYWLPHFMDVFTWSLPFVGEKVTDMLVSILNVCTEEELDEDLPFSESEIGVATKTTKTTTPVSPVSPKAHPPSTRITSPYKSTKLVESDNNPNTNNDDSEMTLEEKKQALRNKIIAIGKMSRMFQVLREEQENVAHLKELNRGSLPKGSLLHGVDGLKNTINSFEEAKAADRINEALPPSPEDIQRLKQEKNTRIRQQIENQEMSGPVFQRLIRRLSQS

[12] = molecular target: ATP-dependent molecular chaperone HSP82 (Candida albicans (strain WO-1) (Yeast), UniProt C4YTQ8); test: steroid-induced GRE reporter decrease in yeast – S. cerevisiae, luminescence, Hsp90 inhibitor project, dose response (AID 2400); assay type: functional, cell-based;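 further: beta-galactosidase luminescence from glucocorticoid response element reporter as proxy for Hsp90 function; inhibitor potency where signal loss means Hsp90 inhibition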
Sequence of ATP-dependent molecular chaperone HSP82 (C4YTQ8 whole entry): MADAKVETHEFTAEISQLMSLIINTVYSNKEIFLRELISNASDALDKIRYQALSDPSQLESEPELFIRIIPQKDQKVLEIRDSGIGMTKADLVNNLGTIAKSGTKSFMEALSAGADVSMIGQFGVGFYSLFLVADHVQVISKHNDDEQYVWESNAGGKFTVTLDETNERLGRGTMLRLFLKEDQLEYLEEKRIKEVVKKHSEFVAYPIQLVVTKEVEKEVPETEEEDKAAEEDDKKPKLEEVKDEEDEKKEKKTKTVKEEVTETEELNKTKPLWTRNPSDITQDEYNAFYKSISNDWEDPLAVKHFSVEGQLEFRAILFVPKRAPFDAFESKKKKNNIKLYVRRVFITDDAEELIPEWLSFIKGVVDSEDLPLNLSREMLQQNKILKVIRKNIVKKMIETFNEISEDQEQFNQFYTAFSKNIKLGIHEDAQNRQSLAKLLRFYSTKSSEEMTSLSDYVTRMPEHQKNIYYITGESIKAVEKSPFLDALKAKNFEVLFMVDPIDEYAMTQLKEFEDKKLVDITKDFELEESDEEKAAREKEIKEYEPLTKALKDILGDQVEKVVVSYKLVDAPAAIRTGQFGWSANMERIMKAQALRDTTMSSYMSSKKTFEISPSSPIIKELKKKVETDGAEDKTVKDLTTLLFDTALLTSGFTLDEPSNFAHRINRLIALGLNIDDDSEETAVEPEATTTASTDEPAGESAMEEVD

[13] = molecular target: T1, Apoptotic protease-activating factor 1; assay type: functional
[14] = toxicity toward HepG2 liver cells – cell-based, plate reader, cherry-pick, antagonist series, cytotoxicity control, dose response (AID 743416); assay type: functional
[15] = viability loss in HEK293 cells – cell-based, plate reader, cherry-picked samples, cytotoxicity control, dose response (AID 743446); assay type: functional
[16] = molecular target: T4, Sentrin-specific protease 8 (Homo sapiens, UniProt Q96LD8); assay type: functional
T4 sequence (Q96LD8 whole entry): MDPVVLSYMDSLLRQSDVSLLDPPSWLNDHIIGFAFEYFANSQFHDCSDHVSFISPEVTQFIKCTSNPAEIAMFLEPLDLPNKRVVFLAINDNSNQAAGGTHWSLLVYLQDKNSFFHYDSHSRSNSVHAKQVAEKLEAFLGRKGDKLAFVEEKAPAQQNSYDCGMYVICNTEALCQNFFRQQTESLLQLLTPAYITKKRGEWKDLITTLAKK

[17] = system: INS1; test: INS-1E survival protection against cytokine death – cell-based, luminescence, retest, dose response (AID 449756); assay type: functional; conditions: Rattus norvegicus;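 further: cell death triggered by IL-1 beta plus TNF-alpha plus IFN-gamma mixture; protective hits raise ATP signal compared with cytokine alone wells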
[18] = A549 cell cytotoxicity, dose response, cytotoxicity control, plate reader, cherry-pick, antagonist series (AID 743412); assay type: functional, cell-based
[19] = molecular target: T4, Sentrin-specific protease 8; assay type: functional; remark: listed apart in the source
[20] = bead-based luminescence quenchers, dual-tagged ARNT – biochemical, AlphaScreen, cherry-pick, artefact control for ARNT-TACC3 interaction inhibitor project, dose response (AID 651705); assay type: functional;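 further: AlphaScreen bead proximity signal that flags compounds interfering with the detection technology; potency reflects signal decrease which marks the compound as an assay artifact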
[21] = system: Streptococcus sp. 'group A'; test: Streptococcus pyogenes SK(-)GAS viability under kanamycin – luminescence, BacTiterGlo, confirmation, counter-screen for streptokinase expression inhibitor project, dose response (AID 1900); assay type: functional, organism-based
[22] = molecular target: T5, Streptokinase A (Streptococcus pyogenes serotype M1, UniProt P10520); test: viability-normalized secreted streptokinase activity reduction – plasminogen activation absorbance, OD405, dose response (AID 1914); assay type: functional, Streptococcus pyogenes M1 GAS;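 further: secreted streptokinase activity via plasminogen activation per viability signal from cell pellet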
T5 sequence (P10520 whole entry): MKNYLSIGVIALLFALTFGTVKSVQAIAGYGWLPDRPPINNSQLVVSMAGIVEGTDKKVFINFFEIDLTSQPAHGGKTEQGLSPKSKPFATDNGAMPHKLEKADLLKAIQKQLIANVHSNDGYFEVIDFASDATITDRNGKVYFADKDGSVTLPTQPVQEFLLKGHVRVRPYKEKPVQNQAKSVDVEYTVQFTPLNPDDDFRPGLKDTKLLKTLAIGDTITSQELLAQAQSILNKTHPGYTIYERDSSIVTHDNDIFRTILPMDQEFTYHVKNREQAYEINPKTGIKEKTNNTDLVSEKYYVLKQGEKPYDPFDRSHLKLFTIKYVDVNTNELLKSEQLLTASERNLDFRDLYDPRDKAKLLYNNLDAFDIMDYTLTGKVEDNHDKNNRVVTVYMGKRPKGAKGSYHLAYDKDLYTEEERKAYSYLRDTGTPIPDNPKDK

[23] = system: Streptococcus; test: GAS UMAA2166 growth inhibition – luminescence, BacTiterGlo, counter-screen for streptokinase expression inhibitor project, dose response (AID 1915); assay type: functional, organism-based;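 further: potency for reduction of bacterial viability or growth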
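Wherever EC50 Mean is given: caspase-3 cleavage of fluorogenic Rh110 DEVD substrate downstream of apoptosome activation.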

With `O=C(c1ccco1)N1CCN(C(=O)C2CC(c3ccc(F)cc3)=NO2)CC1` (configuration not stated) the EC50 [1] was > 100 µM (inactive).
With `Cc1ccc(NC(=O)N2CCC(O)(c3ccc(Cl)cc3)CC2)cc1` the IC50 [2] was > 80 µM (inactive).
For `CCOc1cc(/C=C2\CN(C)C/C(=C\c3ccc(O)c(OCC)c3)C2=O)ccc1O`, the EC50 [3] was 3.26 µM (inconclusive), the EC50 [4] was 2.64 µM (inconclusive) and the EC50 [5] was 2.93 µM (active). For the same compound, the EC50 [6] was 0.571 µM (active), the EC50 [7] was 4.94 µM (inconclusive) and the IC50 [8] was 38.9 µM (active).
In the case of `O=C(/C=C/c1ccc(Br)cc1)N1CCN(c2cccc(C(F)(F)F)c2)CC1`, the IC50 [2] is reported as > 80 µM (inactive).
For `O=CNc1cc(-c2ccsc2)cn2c(-c3ccccc3)cnc12`, the EC50 [9] was > 89.2 µM (inactive).
With `O=c1[nH]c(-c2ccccn2)nc(C(F)(F)F)c1Br` the AC50 [10] was 4.03 µM (active), the EC50 [11] was > 180 µM (inactive) and the EC50 [12] was 10.7 µM (active).
For `CCCCOc1cc(NCc2ccccc2)c2ncn(C(C)C)c2c1`, the IC50 [13] was 13.4 µM (active), the AC50 [14] was 20.3 µM (active) and the AC50 [15] was > 52 µM (inactive). The IC50 [16] was 12.2 µM (active), the AC50 [17] was 8.11 µM (active) and the AC50 [18] was 17.3 µM (active). For the same compound, the IC50 [19] was 12.9 µM (active).
With `O=C(COC(=O)c1ccco1)Nc1nnc(-c2ccccc2)o1` the AC50 [20] was 133 µM (active).
For `O=C(c1ccc(-n2cccc2)cc1)N1CCN(Cc2ccccc2)CC1`, the IC50 [2] was > 80 µM (inactive).
In the case of `Cc1ccc(-c2cnc(N)n2C)cc1C`, the EC50 [21] is reported as 3.86 µM (active), the AC50 [20] is reported as 71.8 µM (active) and the EC50 [22] is reported as 89.4 µM (active). The EC50 [23] was > 150 µM (not active).
With `COc1ccc(-c2cc(NC(C)=O)c3ncc(-c4ccccc4)n3c2)c(OC)c1` the EC50 [9] was > 89.2 µM (inactive).
